The subject of one experiment is Caulobacter cresentus. The experiment in a line: microbe, parasite or virus in culture. The format is cell-based. Conditions: read-out: IC50 cell growth inhibition.
The next experiment concerns Bacillus subtilis. Description: microbe, parasite or virus in culture. The class given is cell-based. Conditions: read-out: IC50 cell growth inhibition.
For another experiment, the system named is Brucella abortus. The format is cell-based.
For the next experiment, the target named is dam Methylase (E. coli) (Escherichia coli, UniProt P0AEE8). The format is biochemical. Conditions: 100 µM.
The target of experiment [1] is dcm Methyltransferase (Hhal) (Haemophilus parahaemolyticus, UniProt P05102). The class given is biochemical, Hemophilus hemolyticus. Conditions: at 500 μM.
For the next experiment, the system named is Brucella abortus CcrM. The format is biochemical.
The subject of experiment [2] is Caulobacter crescentus (CB15N). The class given is cell-based. Conditions: 30° C., growth monitored at 630 nm up to 22 hours; read-out: IC50 (μM) Caulobacter crescentus Cell Growth.
Experiment [3] deals with Bacillus subtilis (ATCC #33234). The class given is cell-based. Conditions: 37° C., growth monitored up to 7.5 hours; read-out: IC50 (μM) Bacillus Subtilis Cell Growth.
Experiment [4] deals with Agrobacterium tumefaciens. The format is cell-based. Conditions: read-out: IC50 cell growth inhibition.
The subject of experiment [5] is adenine DNA methyltransferase. The class given is biochemical.
Experiment [6] deals with bacterial cells expressing an adenine DNA methyltransferase. The class given is cell-based, Caulobacter.
In another experiment the test system is Helicobacter pylori. The format is cell-based. Conditions: read-out: IC50 cell growth inhibition.

Usually IC50 stands for the concentration at which inhibition is half-maximal.

Chain of dam Methylase (E. coli) (P0AEE8 whole entry): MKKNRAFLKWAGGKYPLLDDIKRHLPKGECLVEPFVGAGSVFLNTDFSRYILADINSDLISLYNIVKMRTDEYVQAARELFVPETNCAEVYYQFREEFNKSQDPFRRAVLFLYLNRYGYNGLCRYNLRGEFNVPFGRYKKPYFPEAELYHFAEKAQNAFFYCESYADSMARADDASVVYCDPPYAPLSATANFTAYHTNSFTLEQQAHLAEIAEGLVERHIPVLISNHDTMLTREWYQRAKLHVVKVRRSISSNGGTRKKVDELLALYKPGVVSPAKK
Chain of dcm Methyltransferase (Hhal) (P05102 whole entry): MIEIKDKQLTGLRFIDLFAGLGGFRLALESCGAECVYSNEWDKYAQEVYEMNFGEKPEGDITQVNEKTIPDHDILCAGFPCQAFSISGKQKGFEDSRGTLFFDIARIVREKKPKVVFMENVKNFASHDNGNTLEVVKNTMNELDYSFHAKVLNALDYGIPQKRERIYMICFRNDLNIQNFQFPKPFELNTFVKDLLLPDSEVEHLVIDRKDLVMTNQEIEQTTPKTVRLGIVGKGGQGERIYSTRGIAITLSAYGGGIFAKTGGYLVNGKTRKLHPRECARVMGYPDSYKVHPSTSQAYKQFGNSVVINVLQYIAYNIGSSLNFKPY

As to `Clc1ccc([B-]2(c3ccc(Cl)cc3)Oc3cccc4ccc[n+]2c34)cc1` [Compound (2), di-(p-chlorophenyl)borinic acid 8-hydroxyquiniline ester], the IC50 in the experiment on Caulobacter cresentus was determined as 1.6 µM; in the experiment on Bacillus subtilis, 7 µM.

For the molecule `Fc1ccc([B-]2(c3ccc(F)cc3)[NH2+]CCO2)cc1` [Compound (4), di-(p-fluorophenyl)borinic acid ethanolamine ester], the IC50 stood at 8.5 µM in the experiment with Caulobacter cresentus and 3.4 µM in the experiment on Bacillus subtilis.

For “6-N-(diphenylborinic ester)-ethyl-9-(2-(2-(2-hydroxyethoxy)ethoxy)ethyl)-adenine [Compound 3d]”, the “effect on cell growth” value with Brucella abortus is “Cell growth inhibited from start”. The “inhibition of dam Methylase” value against dam Methylase (E. coli) is given as “Complete inhibition”. The “inhibition of dcm Methyltransferase” value in experiment [1] was “No inhibition at all”.

Regarding `c1csc(B(Oc2cccc3cccnc23)c2cccs2)c1` [(11viii), Di-(2-thienyl)borinic acid 8-hydroxyguinoline ester], the “% reaction Brucella abortus CcrM Activity” value in the experiment with Brucella abortus CcrM came to 74%. Also, the IC50 is over 100 µM in experiment [2] and 28 µM in experiment [3].

“6-N-(diphenylborinic ester)-ethyl-9-(2-(4-morpholinyl)-ethyl)-adenine [Compound 3b]”: the “effect on cell growth” value with Brucella abortus is given as “Complete cell death after 12 hours”. Also, in [4], the half-inhibitory concentration (IC50) was found to be 25 µM. Further, at dam Methylase (E. coli), the “inhibition of dam Methylase” value is given as “Complete inhibition”. In addition, the “inhibition of dcm Methyltransferase” value in [1] is on record as “No inhibition at all”.

As to `Clc1ccc(B(Oc2ccc(Cl)c3cccnc23)c2ccc(Cl)cc2)cc1` [(13iii), Di-(p-chlorophenyl)borinic acid 5-chloro-8-hydroxyquinaline ester], the “% reaction Brucella abortus CcrM Activity” value in the experiment on Brucella abortus CcrM is reported as 81%. Moreover, the results for the IC50 in experiment [2] and in [3] were 6 µM and under 10 µM, respectively.

For the molecule `Fc1ccc(B(Oc2ccc(Cl)c3cccnc23)c2ccc(F)cc2)cc1` [(13ii), Di-(p-fluorophenyl)borinic acid 5-chloro-8-hydroxyquinaline ester], the “% reaction Brucella abortus CcrM Activity” value in the experiment on Brucella abortus CcrM is reported as 55%. Besides, the IC50 in experiment [2] turned out to be 7 µM; in experiment [3] it was 27 µM.

On to `NCCNc1ncnc2[nH]cnc12` [compound (8)], for which, in [5], the inhibitory activity result was “relatively low (mM range)”.

On to “6-N-(diphenylborinic ester)-ethyl-adenine [Compound 3a]”, for which the “effect on cell growth” value in the experiment on Brucella abortus was “Almost complete cell death after 12 hours”. In experiment [4], the IC50 is over 100 µM. Moreover, the “inhibition of dam Methylase” value at dam Methylase (E. coli) is listed as “Complete inhibition”. Also, in experiment [1], the “inhibition of dcm Methyltransferase” value was “No inhibition at all”.

Consider `Clc1ccc([B-]2(c3ccc(Cl)cc3)[NH2+]CCO2)cc1` [Compound (5), di-(p-chlorophenyl)borinic acid ethanolamine ester], for which the IC50 in the experiment with Caulobacter cresentus was 1.7 µM; in the experiment with Bacillus subtilis, 3.2 µM.

With `Clc1ccc(B(Oc2cccc3cccnc23)c2ccc(Cl)cc2)cc1` [(11iii), Di-(4-chlorophenyl)borinic acid 8-hydroxyquinoline ester], in the experiment on Brucella abortus CcrM, the “% reaction Brucella abortus CcrM Activity” value stood at 61%. The IC50 in [2] turned out to be 16 µM.

Take “6-N-(diphenylborinic ester)-ethyl-9-(3-(N-phthaloyl)-aminopropyl)-adenine [Compound 3c]”: the “effect on cell growth” value in the experiment on Brucella abortus is reported as “Cell growth inhibited from start”. The IC50 in experiment [4] was 25 µM. Also, on dam Methylase (E. coli), the “inhibition of dam Methylase” value is given as “Complete inhibition”. Further, the “inhibition of dcm Methyltransferase” value in [1] is recorded as “No inhibition at all”.

Consider `COc1ccc(B(Oc2ccc(Cl)c3cccnc23)c2ccc(OC)cc2)cc1` [(13vii), Di-(4-methoxyphenyl)borinic acid 5-chloro-8-hydroxyquinoline ester], for which the IC50 amounted to 7 µM in experiment [2] and 36 µM in experiment [3].

With `COc1ccc(B(Oc2cccc3ccc(C)nc23)c2ccc(OC)cc2)cc1` [(12vii), Di-(4-methoxyphenyl)borinic acid 8-hydroxyquinaldine ester], in the experiment on Brucella abortus CcrM, the “% reaction Brucella abortus CcrM Activity” value stood at 56%. Besides, the figures for the IC50 in [2] and in experiment [3] were 24 µM and over 100 µM, respectively.

With `Clc1ccc(OB(c2ccc3c(c2)OCO3)c2ccc3c(c2)OCO3)c2ncccc12` [(13vi), Di-(3,4-methylenedioxyphenyl)borinic acid 5-chloro-8-hydroxyquinoline ester], the IC50 in experiment [2] is 7 µM; in experiment [3] it was over 100 µM.

Consider `c1ccc(B(Oc2cccc3cccnc23)c2ccccc2)cc1` [(11i), diphenylborinic acid 8-hydroxyquiniline ester], for which, in experiment [2], the IC50 was over 100 µM.

Take `Cc1ccc2cccc(OB(c3ccc(Cl)cc3)c3ccc(Cl)cc3)c2n1` [(12iii), Di-(p-chlorophenyl)borinic acid 8-hydroxyguinaldine ester]: the “% reaction Brucella abortus CcrM Activity” value in the experiment with Brucella abortus CcrM is given as 40%. For the same molecule, the half-maximal inhibitory concentration (IC50) amounted to 5 µM in experiment [2] and 24 µM in experiment [3].

As to `Fc1ccc([B-]2(c3ccc(F)cc3)Oc3cccc4ccc[n+]2c34)cc1` [Compound (1), di-(p-fluorophenyl)borinic acid 8-hydroxyquiniline ester], the IC50 is 23 µM with Caulobacter cresentus and 1.4 µM in the experiment on Bacillus subtilis.

With `COc1ccc(B(Oc2cccc3cccnc23)c2ccc(OC)cc2)cc1` [(11vii), Di-(4-methoxyphenyl)borinic acid 8-hydroxyquinoline ester], the IC50 in experiment [2] turned out to be 24 µM; in [3], 20 µM.

For “Diphenylborinic acid 2-amino-1-phenylpropanol [(17i)]”, the “% reaction Brucella abortus CcrM Activity” value in the experiment with Brucella abortus CcrM is 114%. The concentration for half-maximal inhibition (IC50) in [2] and in [3] was over 100 µM throughout.

On to `NCCOB(c1ccc(F)cc1)c1ccc(F)cc1` [(19ii), Di-(4-fluorophenyl)borinic acid ethanolamine ester], for which the “% reaction Brucella abortus CcrM Activity” value in the experiment with Brucella abortus CcrM turned out to be 8%. In addition, in experiment [2], the IC50 came out at 85 µM.

For `c1ccc(B(OCCNc2ncnc3[nH]cnc23)c2ccccc2)cc1`, the “concentration found to inhibit cell growth” value in experiment [6] was under 50 µM.

For `Fc1ccc(B(Oc2cccc3cccnc23)c2ccc(F)cc2)cc1` [(11ii), Di-(4-fluorophenyl)borinic acid 8-hydroxyguinoline ester], in the experiment on Brucella abortus CcrM, the “% reaction Brucella abortus CcrM Activity” value was determined as 61%. Also, the IC50 in [2] amounted to 23 µM.

As for `c1cnc2c(OB(c3ccc4c(c3)OCO4)c3ccc4c(c3)OCO4)cccc2c1` [(11vi), Di-(3,4-methylenedioxyphenyl)borinic acid 8-hydroxyquinoline ester], in the experiment on Brucella abortus CcrM, the “% reaction Brucella abortus CcrM Activity” value was found to be 42%. Also, the IC50 in experiment [2] came out at 32 µM; in experiment [3] it was 28 µM.

For `c1ccc([B-]2(c3ccccc3)Oc3cccc4ccc[n+]2c34)cc1` [Compound (3), diphenylborinic acid 8-hydroxyquiniline ester], the concentration for half-maximal inhibition (IC50) with Caulobacter cresentus is over 100 µM.

With `c1ccc(B(OCc2ccccn2)c2ccccc2)cc1` [(16i), Diphenylborinic acid pyridine-2-methanol], in the experiment with Brucella abortus CcrM, the “% reaction Brucella abortus CcrM Activity” value was 93%. The IC50 in experiment [2] and in experiment [3] was over 100 µM throughout.

Regarding “6-N-(diphenylborinic ester)-ethyl-9-(ethyl-2-acrylate)-methyl-adenine [Compound 3e]”, the “effect on cell growth” value in the experiment with Brucella abortus is given as “Cell growth inhibited from start”. The IC50 in the experiment with Helicobacter pylori was 25 µM. On dam Methylase (E. coli), the “inhibition of dam Methylase” value was “Complete inhibition”. The “inhibition of dcm Methyltransferase” value in experiment [1] was “No inhibition at all”.

As to `NCCOB(c1ccc(Cl)cc1)c1ccc(Cl)cc1` [(19iii), Di-(4-chlorophenyl)borinic acid ethanolamine ester], the IC50 in [2] was determined as 17 µM.

For the molecule `Fc1cc(Cl)ccc1B(Oc1cccc2cccnc12)c1ccc(Cl)cc1F` [(11v), Di-(4-chloro-2-fluorophenyl)borinic acid 8-hydroxyquinoline ester], the IC50 in [2] was 26 µM; in [3], under 10 µM.

`Cc1ccc2cccc(OB(c3ccc(F)cc3)c3ccc(F)cc3)c2n1` [(12ii), Di-(p-fluorophenyl)borinic acid 8-hydroxyquinaldine ester]: in the experiment on Brucella abortus CcrM, the “% reaction Brucella abortus CcrM Activity” value was found to be 17%. Also, the figures for the IC50 in [2] and in [3] were 56 µM and over 100 µM, respectively.

For `Clc1cccc(B(Oc2cccc3cccnc23)c2cccc(Cl)c2)c1` [(11iv), Di-(3-chlorophenyl)borinic acid 8-hydroxyguinoline ester], the IC50 in [2] is 10 µM; in experiment [3], under 10 µM.

“Diphenylborinic acid (S)-(+)-pyrrolidine-2-methanol [(18i)]”: in the experiment on Brucella abortus CcrM, the “% reaction Brucella abortus CcrM Activity” value was 81%. The IC50 in experiment [2] and in [3] was over 100 µM throughout.

With `O=[N+]([O-])c1ccc(OB(c2ccc3c(c2)OCO3)c2ccc3c(c2)OCO3)c2ncccc12` [(14vi), Di-(3,4-methylenedioxyphenyl)borinic acid 8-hydroxy-5-nitroquinoline ester], the “% reaction Brucella abortus CcrM Activity” value in the experiment on Brucella abortus CcrM was determined as 21%. In addition, the results for the IC50 in [2] and in experiment [3] were 7 µM and over 100 µM, respectively.

The record behind these values is US20050227933A1 (priority 2001, published 2005).
